The target in experiment [1] is T1, Tyrosine-protein phosphatase non-receptor type 1 (Homo sapiens, UniProt P18031).
T1 sequence (P18031 whole entry): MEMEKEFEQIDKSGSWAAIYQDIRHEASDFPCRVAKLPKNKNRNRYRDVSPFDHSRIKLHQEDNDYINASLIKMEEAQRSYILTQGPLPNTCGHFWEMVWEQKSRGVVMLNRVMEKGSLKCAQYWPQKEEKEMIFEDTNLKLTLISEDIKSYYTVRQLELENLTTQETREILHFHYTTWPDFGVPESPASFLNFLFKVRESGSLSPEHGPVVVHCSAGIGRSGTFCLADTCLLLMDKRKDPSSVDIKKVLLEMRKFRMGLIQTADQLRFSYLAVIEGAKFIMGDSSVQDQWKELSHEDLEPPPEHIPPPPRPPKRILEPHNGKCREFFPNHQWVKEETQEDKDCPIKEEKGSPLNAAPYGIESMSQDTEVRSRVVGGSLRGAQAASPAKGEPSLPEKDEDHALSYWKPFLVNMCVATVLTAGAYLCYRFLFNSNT
The experiment is described as follows: Tested for binding affinity towards Protein-tyrosine Phosphatase 1B. Also noted: species or system Rattus norvegicus.

Experiment [2] has as its target T2, Growth factor receptor-bound protein 2 (Homo sapiens, UniProt P62993). The experiment can be described thus: Inhibition of Growth factor receptor bound protein 2 SH2 domain binding in ELISA. (ELISA stands for enzyme-linked immunosorbent assay.)
For experiment [3], the target named is T2, Growth factor receptor-bound protein 2. The experiment is described as follows: Inhibition of Growth factor receptor bound protein 2 SH2 domain binding in plasmon resonance assay.

pIC50: −log10 of the molar value. Peptide text beside a SMILES is read from it. * marks the point of attachment. Carboxymethyl = O=C(O)C*

T2 sequence (P62993 whole entry, the tested form may be a part): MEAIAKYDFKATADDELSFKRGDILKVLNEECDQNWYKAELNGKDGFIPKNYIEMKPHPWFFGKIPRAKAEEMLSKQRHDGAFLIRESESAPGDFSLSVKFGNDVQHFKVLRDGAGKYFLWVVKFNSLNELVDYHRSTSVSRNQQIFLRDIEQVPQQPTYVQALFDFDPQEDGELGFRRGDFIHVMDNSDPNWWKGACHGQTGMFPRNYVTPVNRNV

The term pIC50 denotes the negative decadic logarithm of the IC50, by convention in mol/L. High values mean a small IC50, low ones a large IC50. In the case of `CC(=O)N[C@@H](CC(=O)O)C(=O)N[C@@H](C)C(=O)N[C@@H](CC(=O)O)C(=O)N[C@@H](CCC(=O)O)C(=O)N[C@@H](Cc1ccc(C(C(=O)O)C(=O)O)cc1)C(=O)N[C@@H](CC(C)C)C(N)=O` (HELM PEPTIDE1{[ac].D.A.D.E.[O=C(O)C(C(=O)O)c1ccc(C[C@H](N[*:1])C(=O)[*:2])cc1].L.[am]}$$$$V2.0), in experiment [1], the pIC50 is 2.82.
Compound `CC(=O)N[C@@H](CC(=O)O)C(=O)N[C@@H](C)C(=O)N[C@@H](CC(=O)O)C(=O)N[C@@H](CCC(=O)O)C(=O)N[C@@H](Cc1ccc(C(F)(C(=O)O)C(=O)O)cc1)C(=O)N[C@@H](CC(C)C)C(N)=O` (HELM PEPTIDE1{[ac].D.A.D.E.[O=C(O)C(F)(C(=O)O)c1ccc(C[C@H](N[*:1])C(=O)[*:2])cc1].L.[am]}$$$$V2.0) had a pIC50 in experiment [1] of 3.37.
`CC(=O)N[C@@H](CC(=O)O)C(=O)N[C@@H](C)C(=O)N[C@@H](CC(=O)O)C(=O)N[C@@H](CCC(=O)O)C(=O)N[C@@H](Cc1ccc(C(=O)O)cc1)C(=O)N[C@@H](CC(C)C)C(N)=O` (HELM PEPTIDE1{[ac].D.A.D.E.[O=C(O)c1ccc(C[C@H](N[*:1])C(=O)[*:2])cc1].L.[am]}$$$$V2.0) gave a pIC50 in experiment [1] of 2.36.
Turning to `NC(=O)C[C@H](NC(=O)C1(NC(=O)[C@H](Cc2ccc(O)c(C(=O)O)c2)NC(=O)C(=O)O)CCCCC1)C(=O)NCCCc1cccc2ccccc12`, in experiment [2], the pIC50 was below 4.00.
As for `CC(=O)N[C@@H](CC(=O)O)C(=O)N[C@@H](C)C(=O)N[C@@H](CC(=O)O)C(=O)N[C@@H](CCC(=O)O)C(=O)N[C@@H](Cc1ccc(C(F)(F)C(=O)O)cc1)C(=O)N[C@@H](CC(C)C)C(N)=O` (HELM PEPTIDE1{[ac].D.A.D.E.[O=C(O)C(F)(F)c1ccc(C[C@H](N[*:1])C(=O)[*:2])cc1].L.[am]}$$$$V2.0), the pIC50 in experiment [1] is 3.19.
On to `NC(=O)C[C@H](NC(=O)C1(NC(=O)[C@H](Cc2ccc(C(F)(F)C(=O)O)cc2)NC(=O)C(=O)O)CCCCC1)C(=O)NCCCc1cccc2ccccc12`, for which the pIC50 in experiment [3] is 5.70.
Same read-out and setting: the value for `NC(=O)C[C@H](NC(=O)C1(NC(=O)[C@H](Cc2ccc(OCC(=O)O)cc2)NC(=O)C(=O)O)CCCCC1)C(=O)NCCCc1cccc2ccccc12` was 4.82.
As to `NC(=O)C[C@H](NC(=O)C1(NC(=O)[C@H](Cc2ccc(C(=O)O)c(O)c2)NC(=O)C(=O)O)CCCCC1)C(=O)NCCCc1cccc2ccccc12`, in experiment [2], the pIC50 was 4.30.
Consider `CC(=O)N[C@@H](CC(=O)O)C(=O)N[C@@H](C)C(=O)N[C@@H](CC(=O)O)C(=O)N[C@@H](CCC(=O)O)C(=O)N[C@@H](Cc1ccc(OCC(=O)O)cc1)C(=O)N[C@@H](CC(C)C)C(N)=O` (Ac-DADEY(Carboxymethyl)L-NH2), for which the negative-log IC50 (pIC50) in experiment [1] was 2.92.
On the same count and under the same terms, the value for `CC(=O)N[C@@H](CC(=O)O)C(=O)N[C@@H](C)C(=O)N[C@@H](CC(=O)O)C(=O)N[C@@H](CCC(=O)O)C(=O)N[C@@H](Cc1ccc(CC(=O)O)c(C(=O)O)c1)C(=O)N[C@@H](CC(C)C)C(N)=O` (HELM PEPTIDE1{[ac].D.A.D.E.[O=C(O)Cc1ccc(C[C@H](N[*:1])C(=O)[*:2])cc1C(=O)O].L.[am]}$$$$V2.0) was 2.43; that for `CC(=O)N[C@@H](CC(=O)O)C(=O)N[C@@H](C)C(=O)N[C@@H](CC(=O)O)C(=O)N[C@@H](CCC(=O)O)C(=O)N[C@@H](Cc1ccc(C(=O)O)c(O)c1)C(=O)N[C@@H](CC(C)C)C(N)=O` (HELM PEPTIDE1{[ac].D.A.D.E.[O=C(O)c1ccc(C[C@H](N[*:1])C(=O)[*:2])cc1O].L.[am]}$$$$V2.0) was 2.28; that for `CC(=O)N[C@@H](CC(=O)O)C(=O)N[C@@H](C)C(=O)N[C@@H](CC(=O)O)C(=O)N[C@@H](CCC(=O)O)C(=O)N[C@@H](Cc1ccc(OP(=O)(O)O)cc1)C(=O)N[C@@H](CC(C)C)C(N)=O` (HELM PEPTIDE1{[ac].D.A.D.E.[O=C([C@H](Cc1ccc(OP(=O)(O)O)cc1)N[*:1])[*:2]].L.[am]}$$$$V2.0) was 5.49.
Compound `NC(=O)C[C@H](NC(=O)C1(NC(=O)[C@H](Cc2ccc(CC(=O)O)cc2)NC(=O)C(=O)O)CCCCC1)C(=O)NCCCc1cccc2ccccc12` had a pIC50 in experiment [3] of 6.22.
`CC(=O)N[C@@H](CC(=O)O)C(=O)N[C@@H](C)C(=O)N[C@@H](CC(=O)O)C(=O)N[C@@H](CCC(=O)O)C(=O)N[C@@H](Cc1ccc(OCC(=O)O)c(C(=O)O)c1)C(=O)N[C@@H](CC(C)C)C(N)=O` (HELM PEPTIDE1{[ac].D.A.D.E.[O=C(O)COc1ccc(C[C@H](N[*:1])C(=O)[*:2])cc1C(=O)O].L.[am]}$$$$V2.0) gave a pIC50 in experiment [1] of 4.72.
The compound `CC(=O)N[C@@H](CC(=O)O)C(=O)N[C@@H](C)C(=O)N[C@@H](CC(=O)O)C(=O)N[C@@H](CCC(=O)O)C(=O)N[C@@H](Cc1ccc(CC(=O)O)c(O)c1)C(=O)N[C@@H](CC(C)C)C(N)=O` (HELM PEPTIDE1{[ac].D.A.D.E.[O=C(O)Cc1ccc(C[C@H](N[*:1])C(=O)[*:2])cc1O].L.[am]}$$$$V2.0) showed a pIC50 in experiment [1] of 1.89.
For the compound `NC(=O)C[C@H](NC(=O)C1(NC(=O)[C@H](Cc2ccc(OCC(=O)O)c(OCC(=O)O)c2)NC(=O)C(=O)O)CCCCC1)C(=O)NCCCc1cccc2ccccc12`, the pIC50 in experiment [3] was below 4.00.
As for `CC(=O)N[C@@H](CC(=O)O)C(=O)N[C@@H](C)C(=O)N[C@@H](CC(=O)O)C(=O)N[C@@H](CCC(=O)O)C(=O)N[C@@H](Cc1ccc(O)c(C(=O)O)c1)C(=O)N[C@@H](CC(C)C)C(N)=O` (HELM PEPTIDE1{[ac].D.A.D.E.[O=C(O)c1cc(C[C@H](N[*:1])C(=O)[*:2])ccc1O].L.[am]}$$$$V2.0), the pIC50 in experiment [1] was 2.34.
In experiment [1], `CC(=O)N[C@@H](CC(=O)O)C(=O)N[C@@H](C)C(=O)N[C@@H](CC(=O)O)C(=O)N[C@@H](CCC(=O)O)C(=O)N[C@@H](Cc1ccc(OCC(=O)O)c(OCC(=O)O)c1)C(=O)N[C@@H](CC(C)C)C(N)=O` (HELM PEPTIDE1{[ac].D.A.D.E.[O=C(O)COc1ccc(C[C@H](N[*:1])C(=O)[*:2])cc1OCC(=O)O].L.[am]}$$$$V2.0) showed a negative logarithm of the IC50 (pIC50) of 3.10.
Still for that read-out and setting: under `CC(=O)N[C@@H](CC(=O)O)C(=O)N[C@@H](C)C(=O)N[C@@H](CC(=O)O)C(=O)N[C@@H](CCC(=O)O)C(=O)N[C@@H](Cc1ccc(CC(=O)O)cc1)C(=O)N[C@@H](CC(C)C)C(N)=O` (HELM PEPTIDE1{[ac].D.A.D.E.[O=C(O)Cc1ccc(C[C@H](N[*:1])C(=O)[*:2])cc1].L.[am]}$$$$V2.0) stands 2.60.
